Where a SMILES comes first, the peptide text is derived from it. Where no end group is shown, it is not given here. [ ]: non-standard residue; d: D form. The star is where a group is joined. Tle = CC(C)(C)[C@H](N)C(=O)O; Octanoyl = CCCCCCCC(=O)*; Dap = NC[C@H](N)C(=O)O; Sar = CNCC(=O)O

In data set [1] the test system is GOAT. The settings on record: cited from earlier work.
In data set [2] the target is T1, mouse GOAT (Mus musculus, UniProt P0C7A3).
T1 construct: made in house; host or cells: sf9 insect cells (baculovirus, pFastBac1-mouseGOAT); total membrane fraction, not purified
T1 sequence (P0C7A3 1-435): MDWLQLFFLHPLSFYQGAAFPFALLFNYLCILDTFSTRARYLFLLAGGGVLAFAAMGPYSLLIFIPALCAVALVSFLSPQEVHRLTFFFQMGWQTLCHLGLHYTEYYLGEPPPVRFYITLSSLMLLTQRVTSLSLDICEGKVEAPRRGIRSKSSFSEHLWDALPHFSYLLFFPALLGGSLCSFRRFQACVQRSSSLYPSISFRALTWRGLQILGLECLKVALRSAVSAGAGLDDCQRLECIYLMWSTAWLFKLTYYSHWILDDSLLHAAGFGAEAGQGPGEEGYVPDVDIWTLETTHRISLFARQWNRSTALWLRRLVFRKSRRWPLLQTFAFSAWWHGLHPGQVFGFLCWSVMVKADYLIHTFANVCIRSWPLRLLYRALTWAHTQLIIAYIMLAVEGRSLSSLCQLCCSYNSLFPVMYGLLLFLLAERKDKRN
Description: Acyltransferase assay: inhibition of proghrelin octanoylation by GOAT in sf9 membrane fractions. The format is biochemical. The following applies: for IC50: read-out: IC50 (GOAT, membrane fraction, in-house); for GOAT inhibition in vitro (in words): membrane fractions. How it is done: pFastBac1-mouseGOAT and pGEX-GST-proGhrelin8His plasmid encoding for mouse proghrelin, fused to GST with TEV cleavage site to release proghrelin moiety, was a kind gift from the Brown and Goldstein laboratory. The BL21Gold E. coli chemically competent cells were transformed with the pGEX-GST-proGhrelin8His plasmid and selected on agar plates with ampicillin. A few colonies were used to inoculate 50 mL LB, and cultures were grown overnight at 37 °C. The next morning, 10 mL of overnight culture was used to inoculate 1L LB. A total of 4 flasks with 1L LB each were inoculated with 10 mL of the overnight culture, and bacterial cultures were grown at 37 °C until they reached OD600 ~ 0.6. The cultures were chilled on ice for 30 min and then 0.25 mM of IPTG was added to each culture. The cultures were then moved back to a shaker set to 18 °C and incubated overnight. Cells were harvested and resuspended in 200 mL buffer containing 25 mM Tris-HCl pH 8.0, 150 mM NaCl, 1 mM EDTA and 0.5 mg/mL lysozyme. The cell suspension was sonicated, and cell debris was removed by centrifugation. The soluble fraction was passed through glutathione resin by gravity. The resin was washed with 75 mL of lysis buffer without lysozyme. The GST-proGhrelin8His protein was eluted with lysis buffer without lysozyme, supplemented with 15 mM reduced glutathione, GSH. About 50 mg of target protein, as evaluated by SDS-PAGE, was eluted. The eluate was supplemented with 1 mM DTT and about 7.5 mg of recombinant GST-TEV protease (see below) was added. The solution was incubated at 16 °C overnight to allow complete release of proghrelin8His from GST. Prior to Ni-NTA chromatography, 5 mM CaCl2 was added, and the solution was spun down at 4000× g for 10 min. After elution from Ni-NTA resin, protein solution was dialyzed against buffer containing 10 mM Tris-HCl pH 8.5, 50 mM NaCl, 10% glycerol and 0.01% CHAPS using 3 kDa cutoff membrane with 3 buffer exchanges. The protein was quantified by absorbance at A280 and qualified by SDS-PAGE.
The baculovirus expression of mouse GOAT. DH10Bac E. coli strain (ThermoFisher, Waltham, MA, USA) was transformed with pFastBac1-mouseGOAT plasmid, and Bacmid DNA from 12 white colonies was analyzed by DNA sequencing and PCR reaction. All clones were transfected to sf9 cells and level of mGOAT expression was compared between clones from cells producing P2. The clone with the highest mGOAT expression level was used to produce P3. For membrane isolation, sf9 cells were seeded at 2–4 × 10^6 /mL in total 1 L volume of sf-900 serum-free medium (ThermoFisher) and infected with P3 virus. At day 2 post-infection, cells were harvested and resuspended in 40 mL of buffer containing 50 mM NaPi pH 7.2, 150 mM NaCl, 1 mM EDTA, 100 μM bis (4-nitrophenyl) phosphate, 2.5 μg/mL aprotinin, 10 μg/mL leupeptin, 10 μg/mL pepstatin A. Cell suspension was briefly sonicated and cell debris was removed by centrifugation at 3000× g for 10 min. Membrane fraction was collected from supernatant by centrifugation at 100,000× g for 1 h. Membrane pellet was resuspended in storage buffer (50 mM NaPi pH 7.2, 150 mM NaCl and 10% glycerol) and kept at −80 °C. Acyltransferase assay: The assay conditions included per 50 μL reaction: 50 μg of total sf9 membranes, various (for modality experiment) or fixed (for IC50) concentrations of recombinant proghrelin8His peptide and various concentrations of tested compound (for IC50), 100 μM palmitoyl CoA, 50 mM HEPES pH 7.0 and 1 μM [^3H] octanoyl CoA (~5.5 dpm/fmol—American Radioactive Chemicals). After incubation of the reaction mixture at 37C for 10 min, tubes were placed on ice and 10 μL of 1M HCl was added to each tube. Following the addition of 740 μL of cold quench buffer (50 mM NaPi pH 7.4, 10 mM Imidazole, 150 mM NaCl, 100 μM bis (4-nitrophenyl) phosphate, 1 mM phenylmethylsulfonyl fluoride and 0.1% Triton), 0.2 mL of 50% Ni-NTA slurry was added to each reaction. […]

Data set [3] in a line: Pharmacokinetics in mice. The format is in vivo.
Where [4] appears, read: sf9 membranes containing mouse GOAT, [3H]octanoyl CoA, proghrelin8His.

“1: GOAT reaction product, acyl ghrelin, 28-residue lipopeptide octanoylated at Ser3 (GSS(Octanoyl)FLSPEHQRVQQRKESKKPPAKLQPR; UniProt Q9UBU3 24-51, looked up) [compound 1]”: the “GOAT inhibition (in words)” value in data set [1] is “weakly inhibited”. Consider `O=C(O)c1ccc2oc(SCc3ccc(Cl)cc3Cl)nc2c1` [compound 7], for which the “mode of GOAT inhibition” value in data set [1] is listed as “competed at the CoA site on GOAT”. Broadly, the IC50 is the point on the concentration scale where inhibition reaches its midpoint. For `CCCCCCCC(=O)NC[C@H](NC(=O)[C@@H](NC(=O)CNC)C(C)(C)C)C(=O)N[C@@H](Cc1ccccc1)C(N)=O` [compound 8] (H-[Sar][Tle][Dap](Octanoyl)F-NH2), the IC50 in data set [2] (setting [4]) turned out to be 14 nM. `CCCCCCCC(=O)NC[C@H](NC(=O)[C@@H](NC(=O)CNC)C(C)(C)C)C(N)=O` [compound 12] (H-[Sar]-[Tle]-[Dap](Octanoyl)-NH2): the “GOAT inhibition in vitro (in words)” value in data set [2] is “inactive”. For the same compound, the IC50 in data set [2] (setting [4]) was over 1000 nM.

As for `CCCCCCCC(=O)NC[C@H](NC(=O)[C@@H](NC(=O)CNC)C(C)(C)C)C(=O)N[C@@H](Cc1ccccc1)C(=O)N[C@@H](CC(C)C)C(N)=O` [compound 13] (H-[Sar][Tle][Dap](Octanoyl)FL-NH2), in data set [2] (setting [4]), the IC50 turned out to be 50 nM. Further, in data set [3], the oral bioavailability entry is recorded as “low” and the pharmacokinetics entry is reported as “poor”. Regarding `CCCCCCCC(=O)NC[C@H](NC(=O)[C@@H](NC(=O)CNC)C(C)(C)C)C(=O)N[C@@H](Cc1ccccc1)C(=O)N[C@@H](CC(C)C)C(=O)N[C@@H](CO)C(N)=O` [compound 14] (H-[Sar][Tle][Dap](Octanoyl)FLS-NH2), the IC50 in data set [2] (setting [4]) came to 62 nM.

With `CCCCCCCC(=O)NC[C@H](NC(=O)[C@@H](NC(=O)CNC)C(C)(C)C)C(=O)N[C@@H](Cc1ccccc1)C(=O)N[C@@H](CC(C)C)C(=O)N[C@@H](CO)C(=O)N1CCC[C@H]1C(N)=O` [compound 15] (H-[Sar][Tle][Dap](Octanoyl)FLSP-NH2), in data set [2] (setting [4]), the IC50 was 96 nM. As for `CCCCOCC(=O)N1CCC(/C=C\c2c(C)nc3nonc3c2N)CC1` [compound 25, (Z)-1-(4-(2-(7-amino-5-methyl-[1,2,5]oxadiazolo[3,4-b]pyridin-6-yl)vinyl)piperidin-1-yl)-2-butoxyethan-1-one], in data set [2], the “GOAT inhibition in vitro (in words)” value is listed as “significantly impaired”. In addition, the IC50 in data set [2] (setting [4]) was determined as 440 nM. For `C[C@H](NC(=O)c1ccnn1C)C(=O)N1CCC(CCCc2cc(N)c3nonc3n2)CC1` [compound 35, (S)-N-(1-(4-(3-(7-amino-[1,2,5]oxadiazolo[3,4-b]pyridin-5-yl)propyl)pip-eridin-1-yl)-1-oxopropan-2-yl)-1-methyl-1H-pyrazole-5-carboxamide], in data set [2], the “GOAT inhibition in vitro (in words)” value is “significantly impaired”. Further, in data set [2] (setting [4]), the “IC50 (GOAT, membrane fraction, in-house)” value is “inactive”.

“N-(((3S,6S,9S)-9-(2-aminoacetamido)-3-benzyl-10,10-dimethyl-5,8-dioxo-1,11-dioxa-4,7-diazacyclopentadec-13-en-6-yl)methyl)octanamide [17a]”: the “mode of GOAT inhibition” value in data set [2] (reaction rates at varied substrate concentrations, fixed inhibitor concentration) is reported as “competing for the peptide substrate”.

The values above are taken from article PMC8709388, “In Search of Small Molecules That Selectively Inhibit MBOAT4” (Molecules, 2021).
